From US20260091031A1, “CGRP RECEPTOR ANTAGONISTS FOR TREATING CHEMOTHERAPY-INDUCED NAUSEA AND VOMITING (CINV)” (priority 2022, published 2026)

Columns and labels:
[1] = Accumulation of gepants in trigeminal ganglion and cerebral cortex after oral administration (LC/MS of tissue extracts); assay type: in vivo; settings: rat, 3 mg/kg oral, 6 hrs after administration, transcardially perfused 10 min
Description: Animals have been transcardially perfused with cold saline for 10 min in order to remove blood contamination and the possible presence of gepants present in plasma. Upon perfusion, tissue specimens form the cerebral cortex (a region beyond the blood brain barrier) and from the trigeminal ganglion (a region before the blood brain barrier) have been collected and extracted with 10 volumes (weight/volume) of a solution of water/acetonitrile (50%/50%). Tissue extracts have been injected in a LC/MS apparatus to reveal the possible presence of the orally-administered gepants.
FIG. 1. Evaluation of the ability of gepants to accumulate within the trigeminal ganglion and cerebral cortex upon oral administration in the rat. […] Animals have been transcardially perfused for 10 min to remove contamination by gepants present in plasma.

[2] = tested on: nausea induced by cisplatin or cyclophosphamide in the rat; experiment: Gaping events as index of nausea induced by cisplatin or cyclophosphamide; assay type: in vivo; settings: 3 mg/kg oral 6 hrs before cisplatin (6 mg/kg i.p.) or cyclophosphamide (40 mg/kg i.p.), monitored for 4 hrs
Description: It is known that the induction of nausea by a chemical can be evaluated in rats measuring repetitive mouth opening (the so called “gaping”) (Autonomic Neuroscience, 2006, 129, 36-41). We have therefore evaluated the effects of rimegepant, ubrogepant, atogepant and zavegepant (3 mg/kg) on gaping prompted in rats by the anticancer drugs cisplatin (6 mg/kg, i.p.) or cyclophosphamide (40 mg/kg, i.p.). These drugs have been injected 6 hrs after the oral administration of the gepants to allow complete tissue drug absorption and distribution. Gaping was monitored for 4 hrs.
FIG. 2. Effects of gepants on nausea induced by cisplatin or cyclophosphamide in the rat. Rats (10 animals/group) received rimegepant, ubrogepant, atogepant and zavegepant orally (3 mg/kg) 6 hrs before an intraperitoneal injection of cisplatin (6 mg/kg) or cyclophosphamide (40 mg/kg). The number of gaping events were evaluated for 4 hrs as an index of nausea.

[3] = tested on: vomiting induced by cisplatin or cyclophosphamide in the shrew; experiment: Vomiting events induced by cisplatin or cyclophosphamide; assay type: in vivo, shrew (Suncus Murinus); settings: 3 mg/kg oral 6 hrs before cisplatin (6 mg/kg i.p.) or cyclophosphamide (40 mg/kg i.p.), monitored for 4 hrs
Description: Specifically, we have evaluated the effects of the oral administration of rimegepant, ubrogepant, atogepant and zavegepant (3 mg/kg) on vomiting events induced in the shrew by cisplatin (6 mg/kg i.p.) or cyclophosphamide (40 mg/kg i.p.). To allow complete gepant absorption and tissue distribution, cisplatin and cyclophosphamide have been administered 6 hrs after the gepants and animals monitored for 4 hrs.
FIG. 3. Effects of gepants on vomiting induced by cisplatin or cyclophosphamide in the shrew. Shrews (10 animals/group) have been orally administered with rimegepant, ubrogepant, atogepant and zavegepant (3 mg/kg) 6 hrs before the intraperitoneal injection of cisplatin (6 mg/kg) or cyclophosphamide (40 mg/kg) and the number of vomiting events evaluated for 4 hrs.

Question: Which results are given for `C[C@@H]1[C@H](c2c(F)ccc(F)c2F)C[C@H](NC(=O)c2cnc3c(c2)C[C@@]2(C3)C(=O)Nc3ncccc32)C(=O)N1CC(F)(F)F` [atogepant]?
Answer: presence in brain cortex extracts [1]: detectable; presence in trigeminal ganglion extracts [1]: detectable; number of gaping events (index of nausea) compared to controls [2]: reduced number of gaping events; number of vomiting events compared to controls [3]: reduced number of vomiting events

Question: What does the source list for `N[C@@H]1c2cccnc2[C@H](OC(=O)N2CCC(n3c(=O)[nH]c4ncccc43)CC2)CC[C@H]1c1cccc(F)c1F` [rimegepant]?
Answer: presence in brain cortex extracts [1]: detectable; presence in trigeminal ganglion extracts [1]: detectable; number of gaping events (index of nausea) compared to controls [2]: reduced number of gaping events; number of vomiting events compared to controls [3]: reduced number of vomiting events

Question: Which “presence in brain cortex extracts” value [1] does the source give for `C[C@@H]1[C@H](c2ccccc2)C[C@H](NC(=O)c2cnc3c(c2)C[C@@]2(C3)C(=O)Nc3ncccc32)C(=O)N1CC(F)(F)F` [ubrogepant] here?
Answer: detectable

Question: What about the “presence in trigeminal ganglion extracts” value [1] of the same compound?
Answer: detectable

Question: What about the “number of gaping events (index of nausea) compared to controls” value [2] of the same compound?
Answer: reduced number of gaping events

Question: What about the “number of vomiting events compared to controls” value [3] of the same compound?
Answer: reduced number of vomiting events

Question: For `Cc1cc(C[C@@H](NC(=O)N2CCC(c3cc4ccccc4[nH]c3=O)CC2)C(=O)N2CCN(C3CCN(C)CC3)CC2)cc2cn[nH]c12` [zavegepant], which “presence in brain cortex extracts” value [1] is on record?
Answer: detectable

Question: What about the “presence in trigeminal ganglion extracts” value [1] of the same compound?
Answer: detectable

Question: And the “number of gaping events (index of nausea) compared to controls” value [2]?
Answer: reduced number of gaping events

Question: And the “number of vomiting events compared to controls” value [3]?
Answer: reduced number of vomiting events
